Measurements: PMC6947571, “An Orthologue of the Retinoic Acid Receptor (RAR) Is Present in the Ecdysozoa Phylum Priapulida” (Genes, 2019)

Target: T1, HsaRARα LBD (Homo sapiens, UniProt P10276)
T1 construct: gene RARA; glutathione S-transferase fusion (pGEX-4T-1), E. coli BL21(DE3)
T1 sequence (P10276 183-417 limits assumed): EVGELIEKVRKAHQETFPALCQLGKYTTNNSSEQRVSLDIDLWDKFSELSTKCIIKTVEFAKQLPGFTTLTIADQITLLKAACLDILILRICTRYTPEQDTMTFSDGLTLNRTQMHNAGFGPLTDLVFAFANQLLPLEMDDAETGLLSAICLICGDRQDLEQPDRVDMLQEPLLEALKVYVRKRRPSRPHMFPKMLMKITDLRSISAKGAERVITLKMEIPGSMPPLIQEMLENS
Test: competitive radioligand binding, hydroxyapatite precipitation
Conditions: 4 °C, labelled compound, positive control

CC1=C(/C=C/C(C)=C/C=C/C(C)=C/C(=O)O)C(C)(C)CCC1 [ATRA]
competitive radioligand binding, hydroxyapatite precipitation (10 nM [3H]ATRA displaced by unlabelled ATRA): Competition by ATRA and 9cisRA with [^3H]ATRA and [^3H]9cisRA for binding to the LBD

CC1=C(/C=C/C(C)=C\C=C\C(C)=C\C(=O)O)C(C)(C)CCC1 [9cisRA]
competitive radioligand binding, hydroxyapatite precipitation (10 nM [3H]ATRA or [3H]9cisRA displaced by unlabelled 9cisRA): Competition by ATRA and 9cisRA with [^3H]ATRA and [^3H]9cisRA for binding to the LBD
